Entries after “also recorded” stand apart in the source; their conditions may differ. No end group written: not given here.

The subject of one assay is primary cardiomyocytes. Kind of assay: STS-induced DNA fragmentation (Cell Death detection ELISA PLUS) in primary cardiomyocytes. The format is cell-based, mouse. Particulars: for ability to decrease cell apoptosis / protect the cells: against STS; for reduction of DNA fragmentation: peptide given together with staurosporine, 1 μM, related to STS-treated cells (=100%), FIG. 5B. As for the experimental part: FIG. 5: In vitro evaluation of the anti-apoptotic activity of CPPs and CPP-conjugates. Workflow and quantitation of DNA fragmentation in (A) C2C12 cells, (B) primary cardiomyocytes, (C) H9c2 cells and (D) NG108-15 cells. Data were normalized to 100% STS. Data shown are the means±SEM, with n≧5. Cells were seeded in 24-well plates and grown overnight. The next day, the cells were incubated with STS alone or with STS+1 μM peptide (in OPTI-MEM) (OPTI-MEM® is a modification of Eagle's Minimum Essential Media, buffered with HEPES and sodium bicarbonate, and supplemented with hypoxanthine, thymidine, sodium pyruvate, L-glutamine, trace elements, and growth factors) (STS concentration and incubation time for each cells are given in the figure). Thereafter, solutions were removed, replaced by complete medium and further incubated for 40 h. Following the regeneration phase, the cells were lyzed and DNA fragmentation was detected according to manufacturer's instructions (Cell Death detection ELISA^PLUS kit—Roche Diagnostics).
FIG. 6: Anti-apoptotic activity of variants of the Tat-DAXXp sequence on primary cardiomyocytes. As described in the caption of FIG. 5, the different analogues of the DAXXp sequence (see Table 2) were assessed for anti-apoptotic properties against STS (Cell Death detection ELISA^PLUS kit—Roche Diagnostics) (A-B). None of the analogues were able to protect the primary cardiomyocytes—a fact which confirms that the 16mer DAXXp has the optimal length and sequence for highest cardioprotective effect.
FIG. 7: Comparison of the murine/rat DAXXp with the human DAXXp sequence in terms of anti-apoptotic activity on C2C12 cells, primary cardiomyocytes, and H9c2. The murine DAXXp sequence conjugated to Tat (Tat-mDAXXp—SEQ ID NO: 61) which is identical to the rat DAXXp sequence (see FIG. 1B), was compared to the human construct (Tat-DAXXp) in terms of anti-apoptotic properties against STS (Cell Death detection ELISA^PLUS kit—Roche Diagnostics). The C2C12 cells and the primary cardiomyocytes used were from mice and the H9c2 cells from rat.
FIG. 9: Comparison of FADDp constructs with Tat-DAXXp in terms of anti-apoptotic activity in primary cardiomyocytes and in H9c2 cells. Quantification of DNA normalized to 100% STS. Data shown are the means±SEM, with n≧5. Cells were seeded in 24-well plates and grown overnight. The next day, the cells were incubated with STS alone or with STS+1 μM peptide (in OPTI-MEM®) (OPTI-MEM® is a modification of Eagle's Minimum Essential Media, buffered with HEPES and sodium bicarbonate, and supplemented with hypoxanthine, thymidine, sodium pyruvate, L-glutamine, trace elements, and growth factors) (STS concentration is given in the figure and incubation time is given in FIG. 5). Thereafter, solutions were removed, replaced by complete medium and further incubated for 40 hours. Following the regeneration phase, the cells were lyzed and DNA fragmentation was detected according to manufacturer's instructions (Cell Death detection ELISA^PLUS kit—Roche Diagnostics).
FIG. 10: Comparison of Tat-DAXXp and Tat-FADDp15 alone and in combination in primary cardiomyocytes (A) and in H9c2 cells (B).
Thereafter, the capacity of these peptides to inhibit apoptosis induced by staurosporine was evaluated. Apoptosis was determined using the Cell Death detection ELISA^PLUS kit (Roche) measuring the DNA fragmentation.
In most publications, anti-apoptotic peptides currently available in the art are administrated 3-4 hours prior to apoptosis induction, which is poorly relevant to a clinical application. For that reason, the protocol used in the present study included administration of the peptides together with the staurosporine. […] This was not observed with CPP alone or with the Tat-scrDAXXp or Tat-ncDAXXp negative controls. […] To better compare the results, the DNA fragmentation (described by the enrichment factor) is related to the staurosporine-treated cells (=100%).
Background: ELISA stands for enzyme-linked immunosorbent assay.

The target of assay [1] is T1, His-tagged intracellular region of Fas receptor (Homo sapiens, UniProt P25445).
T1 construct: His-tagged intracellular region of Fas receptor [10 μg/ml]; purchased Sigma
T1 sequence (P25445 191-335 limits assumed): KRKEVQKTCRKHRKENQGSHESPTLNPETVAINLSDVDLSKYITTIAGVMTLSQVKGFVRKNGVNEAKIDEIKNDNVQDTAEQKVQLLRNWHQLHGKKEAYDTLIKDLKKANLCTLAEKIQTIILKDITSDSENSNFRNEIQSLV
As to the kind of experiment: SPOT peptide array, enzyme-linked blot with His-tagged Fas. The format is binding. The following applies: Fas 10 μg/ml, anti-His/anti-mouse-HRP. How it is done: FIG. 1: Determination of the DAXX epitope by SPOT synthesis. (A) The amino acid sequence of DAXX was dissected in overlapping peptide arrays (pepscan; 15 mer peptides with a shift of 3 amino acids) and analyzed in enzyme-linked blot. […] Incubation conditions: His-tagged intracellular region of Fas receptor [10 μg/ml]; antibodies: anti-His-(mouse) (Sigma H1029; 1:6,000)/anti-mouse-HRP (Calbiochem 401207; 1:2,000), exposure time: 1 minute. (B) Alignment of the human DAXX sequence comprising the 16-mer KKSRKEKKQTGSGPLG (=DAXXp of SEQ ID NO: 5) with the DAXX sequences of other species (mouse, rat, dog (CANFA) and green monkey (CHLAE)).
FIG. 2: Determination of the optimal length of the DAXX epitope (=DAXXp) by SPOT synthesis. (A) The DAXXp-211 and DAXXp-209 peptides (of SEQ ID NO: 2 and SEQ ID NO: 3, respectively) were successively shortened by one amino acid residue at the N-terminus, at the C-terminus and both at the N- and the C-termini, and analyzed using enzyme-linked blot. […] Incubation conditions: His-tagged intracellular region of Fas receptor [10 μg/ml]; antibodies: anti-His-(mouse) (Sigma H1029; 1:6,000)/anti-mouse-HRP (Calbiochem 401207; 1:2,000), exposure time: 1 minute. (B) Alignment of both peptide sequences DAXXp-211 and DAXXp-209; corresponding to the brightest spots, to determine the optimal DAXX peptide sequence.
FIG. 8: Determination of FADDp15 and its anti-apoptotic effect in cardiomyocytes. (A) The protein sequences of FADD were dissected in overlapping peptide arrays (pepscan; 15 mer peptides with a shift of 3 amino acids) and analyzed using enzyme-linked blot. […] (B) The peptide sequence of FADDp-11 (=FADDp15=SEQ ID NO: 9) was successively shortened by one amino acid residue at the C-terminus, the N-terminus, or at both the C-terminus and the N-terminus, and analyzed using enzyme-linked blot. […] The shortest FADD epitope (a 9-mer with sequence KRKLERVQS (=FADDp=SEQ ID NO: 12)) corresponded to spot No. 24. Incubation conditions: His-tagged intracellular region of Fas receptor [10 μg/ml]; antibodies: anti-His-(mouse) (Sigma H1029; 1:6,000)/anti-mouse-HRP (Calbiochem 401207; 1:2,000), exposure time: 1 minute.
The peptides were synthesized on N-modified CAPE-membranes (Bhargava et al, Mol. Recognit, 2002, 15: 145) and prepared by a MultiPep SPOT-robot (INTAVIS Bioanalytical Instruments AG, Cologne, Germany). Array design was performed with the aid of the in-house software LISA 1.71. The synthesis started with spot definition using a standard protocol [Frank, Tetrahedron, 1992, 48: 9217), followed by the coupling of a solution of Fmoc-cysteine-(Trt)-Opfp (0.3M) in N-methylpyrolidone (NMP) and Fmoc-alanine-Opfp (double coupling, 15 min reaction each). After Fmoc cleavage with piperidine in DMF (20%), 4-hydroxymethylphenoxyacetic acid (HMPA) dissolved in dimethylformamide (DMF, 0.6M solution) and activated with EEDQ (1.1 equiv) was added, and samples were directly spotted on the membrane (4× coupling, 15 min reaction each). The membrane was acetylated with acetic anhydride in DMF (2%), washed with DMF (5×3 min), ethanol (2×3 min), and diethyl ether (2×3 min), and finally air dried. Solutions of Fmoc-amino acid-OH (0.4M) activated with 1,1′-carbonyldiimidazole (CDI, 3 equiv) in DMF were spotted on the membrane (4× coupling, 15 min reaction time each). Proline, tyrosine, and glutamine were activated with 1,1′-carbonyldi(1,2,4-triazole) (CDT). The Fmoc group was removed from the spots, and the peptide sequences were completed using the standard SPOT synthesis protocol (Frank, Tetrahedron, 1992, 48: 9217) followed by a N-terminal tag with β-alanine.
The primary sequence of the DAXX protein (SEQ ID NO: 1) was dissected in overlapping 15 mer peptides (3 amino acids shift) and all the peptides (243 peptides) were synthesized on cellulose membrane by SPOT synthesis as described above. The peptide library was incubated with the His-tagged intra-cellular region of the Fas receptor (Sigma). […]

Assay [2] deals with C57Bl6 mice, myocardial ischemia-reperfusion. As to the kind of experiment: Myocardial ischemia-reperfusion IR60' (40 min ischemia, 60 min reperfusion). Particulars: IR60'; data not shown. In kind it is in vivo, mouse. As for the experimental part:
FIG. 11: In vivo experimental protocol. C57Bl6 mice underwent a surgical protocol of myocardial ischemia-reperfusion (IR). The black box represents the period of ischemia to which the mice were submitted. Infarct size or cell death measurements were performed at the end of surgery for each protocol (indicated by ↑). IR60′: 40 minutes of Ischemia, 60 minutes of Reperfusion. IR24h: 40 minutes Ischemia and 24 hours Reperfusion.
FIG. 12: Cardioprotective effects of Tat-DAXXp (1 mg/kg—IV) in mice subjected to IR60′. Infarct size (in % of area at risk) and internucleosomal DNA fragmentation determined by ELISA were quantified in mice subjected to IR60′ and treated with Tat, Tat-DAXXp or Tat-scrDAXXp (1 mg/kg) as well as with DAXXp (10 mg/kg) (intravenous injection (IV) 5 minutes before reperfusion). Means±SEM were plotted for (A): Area at risk/LV mass (left ventricle), (B): Infarct size (in % of area at risk) and (C): (I/NI ratio) corresponding to the ratio of soluble nucleosome in the ischemic portion versus the non-ischemic portion of LV tissues. Statistical analysis was performed using One-way ANOVA with Neuman-Keuls post test for multiple comparisons (GraphPad Prism software). P<0.05, P<0.01 and P<0.001 versus Tat-DAXXp were noted *, **, and *** respectively. P=ns (not significant) for P>0.05.
FIG. 13: Dose response for Tat-DAXXp and DAXXp in mice subjected to IR60′. Infarct size (in % of area at risk) and internucleosomal DNA fragmentation determined by ELISA were quantified in mice subjected to IR60′ and treated with Tat (1 mg/kg), Tat-DAXXp (0.1, 1 and 10 mg/kg) or DAXXp (0.1, 1 and 10 mg/kg) injected intravenously 5 minutes before reperfusion. Means±SEM were plotted for (A): Area at risk/LV mass (left ventricle), (B): Infarct size (in % of area at risk) and (C): (I/NI ratio) corresponding to the ratio of soluble nucleosome in the ischemic versus the non-ischemic portion of LV tissues.
In a second step, the cardioprotective effects of DAXXp were evaluated in an in vivo model of myocardial ischemia-reperfusion. Acute myocardial ischemia and reperfusion were performed in C57Bl6 mice subjected to a surgical model of reversible coronary occlusion. Male mice (22-28 g) were anesthetized and ventilated via a tracheal intubation using a Harvard rodent respirator. Body temperature was maintained between 36.8° C. and 37.0° C. via a thermo-regulated surgical table. The chest was opened by left lateral thoracotomy and a reversible coronary artery snare occluder was placed around the left coronary artery. Mice were randomly allocated to two different surgical protocols of myocardial ischemia-reperfusion (FIG. 11). At the end of reperfusion, the artery was re-occluded and phtalocyanine blue dye was injected into the left ventricle cavity and allowed to perfuse the non-ischemic portions of the myocardium. To determine the effect of DAXXp on myocardial infarct size, peptides were administered intravenously (caudal vein) 5 minutes before reperfusion during the surgical protocol of ischemia-reperfusion. The control groups were treated with Tat or Pip2b peptide (for CPP alone). The dose of 1 mg/kg was chosen (μmolar range) and dose responses for 0.1 and 10 mg/kg were also tested.
At the end of reperfusion, mice were re-anaesthetized, the coronary ligature definitively tightened, the blue dye injected and the harvested left ventricles were dedicated to infarct size (TTC method, Schwartz et al, J Thromb. Thromb., 2000; 10: 181-187) or DNA fragmentation measurements (Cell death detection ELISA^PLUS kit, Roche Diagnostics) in order to investigate the cardioprotective effects against ischemia-reperfusion injuries.

Consider “KSRKEKKQTGSGPLG (listed as Homo sapiens) [DAXXp-15]”, for which the “ability to decrease cell apoptosis / protect the cells” value in the assay with primary cardiomyocytes was “only DAXXp is capable of decreasing cell apoptosis”. Also, the “interaction with the Fas receptor / signal intensity of the spot” value is recorded as “interact with the Fas receptor” in assay [1] and “highest signal intensity” in assay [1] (listed as Spot No. 211).

On to “KRKLERVQS (listed as Homo sapiens) [FADDp]”, for which the “ability to decrease cell apoptosis / protect the cells” value in the assay with primary cardiomyocytes was “decrease cell apoptosis”. For the same substance, in assay [1], the “interaction with the Fas receptor / signal intensity of the spot” value is “interact with the Fas receptor”.

“VGKRKLERVQSGLDL (listed as Homo sapiens) [FADDp15]”: the “ability to decrease cell apoptosis / protect the cells” value with primary cardiomyocytes is recorded as “decrease cell apoptosis”. Moreover, in assay [1], the “interaction with the Fas receptor / signal intensity of the spot” value is “higher signal intensity; also recorded: interact with the Fas receptor”.

On to “GRKKRRQRRRPPQ-KKGRKQSGESLGTPKK-NH2 (GRKKRRQRRRPPQKKGRKQSGESLGTPKK-NH2) [Tat-scrDAXXp, negative control; scrambled version of DAXXp conjugated to Tat]”, for which the “reduction of DNA fragmentation” value with primary cardiomyocytes is reported as “not observed”. In assay [2], the “cardioprotection (infarct size, DNA fragmentation)” value is “not observed”.

Consider “GRKKRRQRRRPPQ-AKLYVYINELCTVLK-NH2 [Tat-ncDAXXp]”, for which the “reduction of DNA fragmentation” value with primary cardiomyocytes was “not observed”.

Regarding “DAXXp-14: fragment of the DAXX protein, amino acid sequence set forth in SEQ ID NO: 6 (SRKEKKQTGSGPLG; listed as Homo sapiens)”, in the assay with primary cardiomyocytes, the “ability to decrease cell apoptosis / protect the cells” value was “only DAXXp is capable of decreasing cell apoptosis”. Besides, the “interaction with the Fas receptor / signal intensity of the spot” value in assay [1] is given as “interact with the Fas receptor”.

The values are drawn from patent US9814758B2, “Inhibitors of apoptosis and uses thereof” (CENTRE NATIONAL DE LA RECHERCHE SCIENTIFIQUE-CNRS, priority 2010, dated 2017).
